These results are taken from patent US9732119B2, “Immunomodulators” (BRISTOL-MYERS SQUIBB COMPANY, priority 2014, dated 2017).

Structures are written as SMILES. Positions of bridges follow the written chain, without caps; N, C: chain ends. Non-standard residues stand in square brackets, D forms with d. Residues, ends and D or L forms follow the SMILES beside them. Trp(1-CH2COOH) = N[C@@H](Cc1cn(CC(=O)O)c2ccccc12)C(=O)O; Hyp = O=C(O)[C@@H]1C[C@@H](O)CN1; Aad = N[C@@H](CCCC(=O)O)C(=O)O; NMeNle = CCCC[C@H](NC)C(=O)O; Pip = O=C(O)[C@@H]1CCCCN1; NMeA = CN[C@@H](C)C(=O)O; Dab = NCC[C@H](N)C(=O)O; Dap = NC[C@H](N)C(=O)O; Ava = NCCCCC(=O)O

The assay has as its target T1, PD-1-Ig binding to PD-L1-TVMV-His (PD-L1-His) (Homo sapiens, UniProt Q9NZQ7).
T1 construct: hPDL1(19-239)-TVMV-His; made in house; host or cells: HEK293T cells
Briefly: PD-1/PD-L1 Homogenous Time-Resolved Fluorescence (HTRF) binding assay. The conditions noted are these: PD-1-Ig (20 nM) / PD-L1-His (10 nM). In short, it runs like this: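 HTRF competition: compound pre-incubated 15 min with PD-L1-His (10 nM final), then PD-1-Ig (20 nM final) added for 15 min in dPBS, 0.1% BSA, 0.05% Tween-20. Detection with Eu-cryptate anti-Ig (1 nM) and APC anti-His (20 nM) antibodies.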
Background: TR-FRET usually uses a lanthanide donor and a delayed reading to cut background.

T1 sequence (Q9NZQ7 with tags, fused parts or gaps): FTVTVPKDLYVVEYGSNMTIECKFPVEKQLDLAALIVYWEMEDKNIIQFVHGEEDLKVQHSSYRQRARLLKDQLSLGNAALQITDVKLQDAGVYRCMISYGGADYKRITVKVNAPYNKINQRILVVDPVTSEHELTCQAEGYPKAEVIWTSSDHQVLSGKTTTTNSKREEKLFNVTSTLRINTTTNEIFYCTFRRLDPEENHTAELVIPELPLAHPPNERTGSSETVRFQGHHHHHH

The term IC50 denotes the concentration that gives 50% inhibition. A high value points to lower potency. `CCCC[C@H]1C(=O)N(C)[C@@H](CCCC)C(=O)N[C@@H](CC(C)C)C(=O)N[C@H](C(=O)NCC(N)=O)CNCC(=O)N[C@@H](Cc2ccc(O)cc2)C(=O)N2CCCC[C@H]2C(=O)N[C@@H](CC(N)=O)C(=O)N2CCC[C@H]2C(=O)N[C@@H](CN)C(=O)N[C@@H](CC(C)C)C(=O)N2C[C@H](O)C[C@H]2C(=O)N[C@@H](Cc2c[nH]c3ccccc23)C(=O)N[C@@H](CCN)C(=O)N[C@@H](Cc2cn(CC(=O)O)c3ccccc23)C(=O)N1C` [Example 1037] came in with an IC50 (range classes) of 1 to 9.9 nM. Same read-out and setting: in the case of `CCCC[C@H]1C(=O)N(C)[C@@H](CCCC)C(=O)N[C@@H](CCC(=O)O)C(=O)N[C@H](C(N)=O)CNCC(=O)N[C@@H](Cc2ccc(O)cc2)C(=O)N2CCCC[C@H]2C(=O)N[C@@H](CC(N)=O)C(=O)N2CCC[C@H]2C(=O)N[C@@H](Cc2c[nH]cn2)C(=O)N[C@@H](CC(=O)O)C(=O)N2C[C@H](O)C[C@H]2C(=O)N[C@@H](Cc2c[nH]c3ccccc23)C(=O)N[C@@H](C)C(=O)N[C@@H](Cc2cn(CC(=O)O)c3ccccc23)C(=O)N1C` [Example 9054] it was 1 to 9.9 nM; in that of `CCCC[C@H]1C(=O)N(C)[C@@H](CCCC)C(=O)N[C@@H](CC(C)C)C(=O)N[C@H](C(N)=O)CNCC(=O)N[C@@H](Cc2ccc(F)cc2)C(=O)N2CCCC[C@H]2C(=O)N[C@@H](CC(N)=O)C(=O)N2CCC[C@H]2C(=O)N[C@@H](CCC(N)=O)C(=O)N[C@@H](CCC(N)=O)C(=O)N2C[C@H](O)C[C@H]2C(=O)N[C@@H](Cc2c[nH]c3ccccc23)C(=O)N[C@@H](CC(N)=O)C(=O)N[C@@H](Cc2cn(CC(=O)O)c3ccccc23)C(=O)N1C` [Example 9033], 1 to 9.9 nM.

As to `CCCC[C@H]1C(=O)N(C)[C@@H](CCCC)C(=O)N[C@@H](CC(C)C)C(=O)N[C@H](C(=O)NCC(N)=O)CNCC(=O)N[C@@H](Cc2ccc(O)cc2)C(=O)N(C)[C@@H](C)C(=O)N[C@@H](CC(N)=O)C(=O)N2CCC[C@H]2C(=O)N[C@@H](CCC(N)=O)C(=O)N[C@@H](CC(=O)O)C(=O)N2C[C@H](O)C[C@H]2C(=O)N[C@@H](Cc2c[nH]c3ccccc23)C(=O)N[C@@H](CC(N)=O)C(=O)N[C@@H](Cc2cn(CC(=O)O)c3ccccc23)C(=O)N1C` [Example 9006], the IC50 (range classes) was in the range of 1 to 9.9 nM. Same read-out and setting: with `CCCC[C@H]1C(=O)N(C)[C@@H](CCCC)C(=O)N[C@@H](CC(C)C)C(=O)N[C@H](C(=O)NCC(N)=O)CNCC(=O)N[C@@H](Cc2ccc(O)cc2)C(=O)N(C)[C@@H](C)C(=O)N[C@@H](CC(N)=O)C(=O)N2CCC[C@H]2C(=O)N[C@@H](Cc2cnc[nH]2)C(=O)N[C@@H](CC(C)C)C(=O)N2C[C@H](O)C[C@H]2C(=O)N[C@@H](Cc2c[nH]c3ccccc23)C(=O)N[C@@H](CO)C(=O)N[C@@H](Cc2cn(CC(=O)O)c3ccccc23)C(=O)N1C` [Example 10007] the figure was 1 to 9.9 nM. Still for that read-out and setting: with `CCCC[C@H]1C(=O)N(C)[C@@H](CCCC)C(=O)N[C@@H](CC(C)C)C(=O)N[C@H](C(N)=O)CCCC(=O)N[C@@H](Cc2ccc(O)cc2)C(=O)N2CCCC[C@H]2C(=O)N[C@@H](CC(=O)O)C(=O)N2CCC[C@H]2C(=O)N[C@@H](CN)C(=O)N[C@@H](CC(C)C)C(=O)N2C[C@H](O)C[C@H]2C(=O)N[C@@H](Cc2c[nH]c3ccccc23)C(=O)N[C@@H](CCN)C(=O)N[C@@H](Cc2cn(CC(=O)O)c3ccccc23)C(=O)N1C` [Example 10552] (Y[Pip]DP[Dap]L[Hyp]W[Dab][Trp(1-CH2COOH)][NMeNle][NMeNle]L[Aad]-NH2; lactam N-14) the figure was 1 to 9.9 nM. In turn, `CCCC[C@H]1C(=O)N(C)[C@@H](CCCC)C(=O)N[C@@H](CC(C)C)C(=O)NCCCCC(=O)N[C@@H](Cc2ccc(O)cc2)C(=O)N(C)[C@@H](C)C(=O)N[C@@H](CC(=O)O)C(=O)N2CCC[C@H]2C(=O)N[C@@H](Cc2c[nH]cn2)C(=O)N[C@@H](CCCCN)C(=O)N2C[C@H](O)C[C@H]2C(=O)N[C@@H](Cc2c[nH]c3ccccc23)C(=O)N[C@@H](CCCCN)C(=O)N[C@@H](Cc2cn(CC(=O)O)c3ccccc23)C(=O)N1C` [Example 10509] (cyclo([Ava]Y[NMeA]DPHK[Hyp]WK[Trp(1-CH2COOH)][NMeNle][NMeNle]L)) had an IC50 (numeric values) of 765 nM.
